Data published in patent US9796672B2, “Isoindoline compositions and methods for treating neurodegenerative disease” (Cognition Therapeutics, Inc., priority 2014, dated 2017).

Key:
[1] = Mouse liver microsome (MLM) stability; assay type: in vitro ADME; conditions: mouse, microsomes
Procedure: A first pharmacokinetic study was performed in microsomes of mice mouse liver microsomes, MLM) by a commercial contract research organization. The studies were performed according to Obach, R. S et al. (1997) J. Pharmacol. Exp. Ther., 283: 46-58, which is incorporated herein by reference.

neuronal cultures = assay: Functional neuronal phenotype in neuronal cultures; assay type: cell-based; parameters: key: Antagonist: antagonists (block Abeta signaling); Agonist: agonists (block Abeta signaling with U-shaped dose-response curve and toxicity at high doses); Inactive: inactive (no effect in neuronal cultures)
Procedure: Neuronal cultures are treated with various concentrations of sigma compounds for 24 hours and nuclear intensity compared to vehicle is measured.

[2] = system: Abeta oligomer-induced membrane trafficking deficits in primary hippocampal neurons; assay: Membrane trafficking/exocytosis (MTT) assay; conditions: read-out: Membrane Trafficking EC50; compound dosed prior to Abeta oligomer addition
Procedure: Primary hippocampal neurons from E18 Sprague-Dawley rat embryos were plated at optimized concentrations in 384 well plates in NB media (Invitrogen). Neurons were maintained in cultures for 3 weeks, with twice weekly feeding of NB media with N2 supplement (Invitrogen).
MTT reagent (3-(4,5-dimethylthizaol-2yl)-2,5diphenyl tetrazolium bromide) (Roche Molecular Biochemicals) was reconstituted in phosphate buffered saline to 5 mg/mL. 10 μL of MTT labeling reagent is added to each well and incubated at 37° C. for 1 h, then imaged. Exocytosis was assessed by automated microscopy and image processing to quantify the amount of endocytosed and exocytosed formazan.
Each assay plate was formatted so that compounds are tested with and without Abeta oligomer on each plate. […] Reduced formazan was first visible in intracellular vesicles. […] The dye precipitated in the aqueous environment of the culture and formed needle-shaped crystals on the surface of the neuron.

Sigma-2 receptor = Sigma-2 receptor competitive radioligand binding assay; parameters: species or system rat; conditions: read-out: Sigma-2 Receptor Affinity, Ki
Procedure: Radioligand binding assays for Sigma-1 receptors and Sigma-2 receptors were carried out by a commercial contract research organization. For Sigma-1 binding, various concentrations of test compounds from 100 μM to 1 nM were used to displace 8 nM [^3H](+)pentazocine from endogenous receptors on Jurkat cell membranes (Ganapathy M E et al. 1991, J Pharmacol. Exp. Ther. 289:251-260). 10 μM Haloperidol was used to define non-specific binding. For Sigma-2 receptors various concentrations of test compounds from 100 μM to 1 nM were used to displace 5 nM [^3H] […] (Bowen W D, et al. 1993, Mol. Neuropharmcol 3:117-126). 10 μM Haloperidol was used to define non-specific binding. Reactions were terminated by rapid filtration through Whatman GF/C filters using a Brandel 12R cell harvester followed by two washes with ice-cold buffer. Radioactivity on the dried filter discs was measured using a liquid scintillation analyzer (Tri-Carb 2900TR; PerkinElmer Life and Analytical Sciences). The displacement curves were plotted and the Ki values of the test ligands for the receptor subtypes were determined using GraphPad Prism (GraphPad Software Inc., San Diego, Calif.). The percentage specific binding was determined by dividing the difference between total bound (disintegrations per minute) and nonspecific bound (disintegrations per minute) by the total bound (disintegrations per minute).
The affinity of candidate sigma-2 ligand compounds at sigma-1 and sigma-2 receptors was also determined by displacement of different known labeled sigma-2 or sigma-1 ligands. Filtration assays were conducted according the previously published procedure (Xu, et al., 2005). Test compounds were dissolved in N,N-Dimethylformamide (DMF), dimethyl sulfoxide (DMSO) or ethanol and then diluted in 50 mM Tris-HCl pH 7.4 buffer containing 150 mM NaCl and 100 mM EDTA. Membrane homogenates were made from guinea pig brain for sigma-1 binding assay and rat liver for sigma-2 binding assay. Membrane homogenates were diluted with 50 mM Tris-HCl buffer, pH 8.0 and incubated at 25° C. in a total volume of 150 uL in 96 well plates with the radioligand and test compounds with concentrations ranging from 0.1 nM to 10 uM. After incubation was completed, the reactions were terminated by the addition of 150 uL of ice-cold wash buffer (10 mM Tris HCl, 150 mM NaCl, pH 7.4) using a 96 channel transfer pipette (Fisher Scientific, Pittsburgh, Pa.) and the samples harvested and filtered rapidly through 96 well fiber glass filter plate (Millipore, Billerica, Mass.) that had been presoaked with 100 uL of 50 mM Tris-HCl buffer. Each filter was washed four times with 200 uL of ice-cold wash buffer (10 mM Tris-HCl, 150 mM NaCl, pH 7.4). A Wallac 1450 MicroBeta liquid scintillation counter (Perkin Elmer, Boston, Mass.) was used to quantitate the bound radioactivity.
Nonspecific binding was determined from samples that contained 10 uM of cold haloperidol.
The binding affinity, Ki values was calculated using the method of Cheng and Prusoff.

Mouse liver microsomes, MLM t½ [1]	Ki (Sigma-2 receptor)	SMILES	neuronal phenotype (neuronal cultures)	EC50 [2]
15 min	–	COc1ccc2c(c1)CN([C@H](C)CCc1ccc(Cl)c(Cl)c1)C2.Cl [compound 15]	Inactive	500 nM
10 min	–	COc1cc(CCC(C)N2Cc3ccc4ccccc4c3C2)ccc1O.Cl (stereo not drawn) [compound 17]	Antagonist	300 nM
8 min	–	C[C@H](CCc1ccc(O)c(OC(C)(C)C)c1)N1Cc2cccc(F)c2C1 [60B]	Antagonist	1600 nM
28 min	–	COc1cc(CC[C@@H](C)N2Cc3ccc(C(F)(F)F)cc3C2)ccc1O [compound 2]	Antagonist	6700 to 7700 nM
142 min	–	COc1cc(CCC(C)(C)N2Cc3ccc(S(C)(=O)=O)cc3C2)ccc1O [compound 77]	Antagonist	100 nM
17 min	–	CC(C)COc1cc(CCC(C)(C)N2Cc3cccc(C(=O)N(C)C)c3C2)ccc1O [compound 89]	–	–
13 min	–	C[C@H](CCc1ccc(Cl)c(Cl)c1)N1Cc2ccc(F)cc2C1.Cl [compound 12]	Antagonist	400 nM
12 min	–	C[C@H](CCc1ccc(Cl)c(Cl)c1)N1Cc2cccc(Cl)c2C1.Cl [compound 16]	Inactive	> 20000 nM

The remaining lines, values behind:

SMILES	Mouse liver microsomes, MLM t½ [1]	Ki (Sigma-2 receptor)	neuronal phenotype (neuronal cultures)	EC50 [2]
COc1cc(CCC(C)(C)N2Cc3cccc(F)c3C2)ccc1Cl [compound 112]	–	–	Antagonist	260 nM
COc1cccc(CCC(C)(C)n2cc3ccc(S(C)(=O)=O)cc3c2)c1 [compound 104]	–	760 nM	Inactive	100000 nM
CC(C)(C#Cc1ccc2[nH]ncc2c1)N1Cc2cccc(C(=O)N3CCNCC3)c2C1 [compound 114]	–	–	Neuroactive	250 nM
COc1cc(CCC(C)(C)N2Cc3ccc(S(C)(=O)=O)cc3C2)ccc1Cl [compound 113]	–	–	Antagonist	5300 nM
CC(=O)N1CCN(C(=O)c2cccc3c2CN(C(C)(C)CCc2ccc(O)c(OCC(C)C)c2)C3)CC1 [compound 92]	7 min	–	–	–
CC(C)(CCc1ccc(O)c(Cl)c1)N1Cc2cccc(F)c2C1 [compound 117]	–	–	Antagonist	1200 nM
CC(C)(CCc1ccc(F)cc1)N1Cc2cccc(F)c2C1 [compound 33]	9 min	–	Antagonist	3300 nM
CC(C)(CCc1ccc(O)c(OC(F)(F)F)c1)N1Cc2cccc(C(=O)N3CCOCC3)c2C1 [compound 94]	14 min	–	–	–
CC(C)(C)Oc1cc(CCC(C)(C)n2cc3ccc(S(C)(=O)=O)cc3c2)ccc1O [compound 95]	–	100 nM	Antagonist	1700 nM
CN1CCN(C(=O)c2cccc3c2CN(C(C)(C)CCc2ccc(O)c(OC(F)(F)F)c2)C3)CC1 [compound 93]	5 min	–	–	–
CC(C)(CCc1ccc2[nH]ncc2c1)N1Cc2cccc(C(=O)N3CCNCC3)c2C1 [compound 115]	–	–	Inactive	100000 nM
CC(CCc1ccc(Cl)c(Cl)c1)N1Cc2ccc3ccccc3c2C1 (stereo not drawn) [compound 19]	–	–	Antagonist	–
CC(C)COc1cc(CCC(C)(C)N2Cc3cccc(C(=O)N4CCOCC4)c3C2)ccc1O [compound 90]	9 min	–	–	–
COc1ccc(CCC(C)(C)N2Cc3cccc(C(=O)N4CCNCC4)c3C2)cc1Cl [compound 118]	–	–	Inactive	100000 nM
CC(C)(CCc1ccc(O)c(Cl)c1)N1Cc2ccc(S(C)(=O)=O)cc2C1 [compound 116]	–	–	Inactive	100000 nM
CC(C)COc1cc(CCC(C)(C)N2Cc3cccc(C(=O)N4CCN(C)CC4)c3C2)ccc1O [compound 91]	6 min	–	–	–
